Consider nine compounds from patent publication US8420830B2, “Macrocyclic factor VIIa inhibitors useful as anticoagulants” (Bristol-Myers Squibb Company, priority 2006, dated 2013).

SMILES strings stand for the structures. “And” between values parts separate entries of the source, which are not always exact repeats. Equal entries are not always repeated. Structures can show the parent of a compound that is named as a salt.

What is called Ki is the equilibrium dissociation constant of an inhibitor or competing ligand from its target. Read a low Ki as a stronger hold on the target.

The assay deals with T1, Factor VIIa (Homo sapiens, UniProt P08709).
T1 construct: purchased Haematologic Technologies (purified) or Novo Nordisk (recombinant)
T1 sequence (P08709 213-466 limits assumed): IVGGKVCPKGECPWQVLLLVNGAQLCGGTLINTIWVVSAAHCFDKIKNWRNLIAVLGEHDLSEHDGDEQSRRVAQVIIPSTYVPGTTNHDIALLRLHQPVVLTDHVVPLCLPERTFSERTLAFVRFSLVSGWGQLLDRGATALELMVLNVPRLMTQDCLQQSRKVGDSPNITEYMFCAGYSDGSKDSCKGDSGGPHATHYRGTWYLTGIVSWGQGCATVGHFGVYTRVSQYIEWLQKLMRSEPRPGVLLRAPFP
T1 sequence (P08709 61-212 limits assumed): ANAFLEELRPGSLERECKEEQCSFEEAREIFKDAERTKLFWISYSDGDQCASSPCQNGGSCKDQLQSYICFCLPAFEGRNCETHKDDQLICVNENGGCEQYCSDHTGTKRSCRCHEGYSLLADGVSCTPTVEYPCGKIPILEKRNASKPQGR
T1 sequence (P13726 33-251 partner limits assumed): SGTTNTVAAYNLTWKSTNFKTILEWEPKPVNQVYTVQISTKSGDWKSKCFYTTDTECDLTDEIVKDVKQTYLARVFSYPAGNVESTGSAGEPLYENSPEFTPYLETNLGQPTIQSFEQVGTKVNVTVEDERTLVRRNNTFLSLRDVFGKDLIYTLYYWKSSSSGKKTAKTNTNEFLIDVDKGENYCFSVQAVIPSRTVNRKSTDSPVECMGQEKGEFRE
In words: Factor VIIa assay. It counts as biochemical. Particulars: measured in the Factor VIIa assay described above; several values in a cell are repeat determinations.
`Cc1cc2cc(C)c1CCOC(=O)Nc1cccc(c1)CN(CCC(=O)O)C(=O)C2Nc1ccc2cc[nH]c(=O)c2c1` (stereo not drawn) [Example 145, 3-[17,20-Dimethyl-3,12-dioxo-2-(1-oxo-1,2-dihydro-isoquinolin-7-ylamino)-13-oxa-4,11-diaza-tricyclo[14.2.2.1^6,10]henicosa-1(19),6,8,10(21),16(20),17-hexaen-4-yl]-propionic acid] came in with a Ki of 1300 nM.
In the case of `Cc1cc2ccc1[C@@H](C)COC(=O)Nc1ccc(S(=O)(=O)C3CC3)c(c1)CN(C)C(=O)[C@@H]2Nc1ccc2nc[nH]c(=O)c2c1` [Example 76, (2R,15R)-7-Cyclopropanesulfonyl-4,15,17-trimethyl-2-(4-oxo-3,4-dihydro-quinazolin-6-ylamino)-13-oxa-4,11-diaza-tricyclo[14.2.2.1^6,10]henicosa-1(19),6,8,10(21),16(20),17-hexaene-3,12-dione trifluoroacetate], the Ki was 0.69 nM and 0.86 nM and 0.87 nM and 0.96 nM and 1.14 nM and 1.22 nM.
Next, `CCO[C@H]1COC(=O)Nc2ccc(S(=O)(=O)C3CC3)c(c2)CN(C)C(=O)[C@H](Nc2ccc3cc[nH]c(=O)c3c2)c2ccc1c(C)c2` (single isomer, unassigned) [Example 40]: 1.57 nM; `COc1cc2cc(OC)c1CCOC(=O)Nc1cccc(c1)[C@@H](CC(=O)O)NC(=O)[C@@H]2Nc1ccc2nc[nH]c(=O)c2c1` [Example 13, [(2R,5R)-17,20-Dimethoxy-3,12-dioxo-2-(4-oxo-3,4-dihydro-quinazolin-6-ylamino)-13-oxa-4,11-diaza-tricyclo[14.2.2.1^6,10]henicosa-1(19),6,8,10(21),16(20),17-hexaen-5-yl]-acetic acid]: 24 nM and 40.4 nM; `Cc1cc2ccc1[C@@H](C)COC(=O)Nc1cccc(c1)CN(CCNC(=O)OC(C)(C)C)C(=O)[C@@H]2Nc1ccc2cc[nH]c(=O)c2c1` [Example 148, {2-[(2R,15R)-15,17-Dimethyl-3,12-dioxo-2-(1-oxo-1,2-dihydro-isoquinolin-7-ylamino)-13-oxa-4,11-diaza-tricyclo[14.2.2.1^6,10]henicosa-1(19),6,8,10(21),16(20),17-hexaen-4-yl]-ethyl}-carbamic acid tert-butyl ester]: 2530 nM.
Consider `CC[C@H]1COC(=O)Nc2ccc(S(=O)(=O)C3CC3)c(c2)CN(C)C(=O)[C@H](Nc2ccc3nc[nH]c(=O)c3c2)c2ccc1cc2` [Example 65, (2R,15R)-7-Cyclopropanesulfonyl-15-ethyl-4-methyl-2-(4-oxo-3,4-dihydro-quinazolin-6-ylamino)-13-oxa-4,11-diaza-tricyclo[14.2.2.1^6,10]henicosa-1(19),6,8,10(21),16(20),17-hexaene-3,12-dione], for which the inhibition constant (Ki) was 29.4 nM and 34 nM.
Next, `Cc1cc2ccc1[C@@H](C)COC(=O)Nc1ccc(S(=O)(=O)C3CC3)c(c1)CN(C)C(=O)[C@@H]2Nc1cc2c(=O)[nH]cnc2cc1F` [Example 78, (2R,15R)-7-Cyclopropanesulfonyl-2-(7-fluoro-4-oxo-3,4-dihydro-quinazolin-6-ylamino)-4,15,17-trimethyl-13-oxa-4,1-diaza-tricyclo[14.2.2.1^6,10]henicosa-1(19),6,8,10(21),16(20),17-hexaene-3,12-dione]: 1.35 nM and 1.38 nM.
Next, `C[C@H]1COC(=O)Nc2ccc(S(=O)(=O)C3CC3)c(c2)CN(C)C(=O)[C@H](Nc2ccc3cc[nH]c(=O)c3c2)c2ccc1c(Cl)c2` [Example 84, (2R,15R)-17-Chloro-7-cyclopropanesulfonyl-4,15-dimethyl-2-(1-oxo-1,2-dihydro-isoquinolin-7-ylamino)-13-oxa-4,11-diaza-tricycle [14.2.2.1^6,10]henicosa-1(19),6,8,10(21),16(20),17-hexaene-3,12-dione]: 1.44 nM; `Cc1cc2ccc1[C@@H](C)CCC(=O)Nc1ccc(OC(F)(F)F)c(c1)CN(C)C(=O)[C@@H]2Nc1ccc2c(F)c[nH]c(=O)c2c1` (single isomer, unassigned) [Example 42]: 27.6 nM.
